Laboratory results as given in patent US20070077268A1, “Hydrophobic carrier modified implants for beneficial agent delivery” (DePuy Products, Inc., priority 2005, published 2007).

Test: Cyclic loading test of UHMWPE pins, release of beta-carotene
Type: physicochemical
Settings: pins soaked in 1.0 wt. % beta-carotene in squalane at 90° C. for 24 hours; peak load about 330 Newtons, 1.66 Hz, bovine calf serum, 37° C.
Description: UHMWPE (GUR 1050) is irradiated with gamma radiation (50 KGy or 5 Mrad) and melt annealed to quench free radicals. An AMTI Ortho-POD Wear Test Machine is used for the testing the UHMWPE cylindrical pin samples. The samples are ⅜ inch in diameter and 0.7 inch long, and are soaked in a 1.0 wt. % solution of beta-carotene in squalane at 90° C. for 24 hours. The samples are bright orange red in color, indicating the presence of beta-carotene.
A Paul loading curve with a peak load of about 330 Newtons is applied to the pins. The cycling frequency is 1.66 Hz. A 90% bovine calf serum, diluted with EDTA and sodium azide dissolved in reverse osmosis water, is used as lubricant. The temperature of the lubricant is 37° C.

CC1=C(/C=C/C(C)=C/C=C/C(C)=C/C=C/C=C(C)/C=C/C=C(C)/C=C/C2=C(C)CCCC2(C)C)C(C)(C)CCC1 [beta-carotene]
release of beneficial agent from UHMWPE pins (colour change bright orange red to light orange): released, activated by the load
